Measured values as given in patent US7348347B2, “Substituted 4,5,6,7-tetrahydrobenzthiazol-2-ylamine compounds” (Gruenenthal GmbH, priority 2004, dated 2008).
Like-named read-outs stand apart in the source and are kept apart here.

Assays:
5-HT uptake = target: T1, 5-HT uptake (Rattus norvegicus, UniProt P31652); test: Inhibition of 5-HT uptake in rat brain synaptosomes; assay type: biochemical; details: rat synaptosomes (medulla and pons), [3H]-5-HT
T1 construct: from tissue; host or cells: rat brain synaptosomes (P2 fraction) from marrow (medulla) and pons
T1 sequence (P31652 whole entry): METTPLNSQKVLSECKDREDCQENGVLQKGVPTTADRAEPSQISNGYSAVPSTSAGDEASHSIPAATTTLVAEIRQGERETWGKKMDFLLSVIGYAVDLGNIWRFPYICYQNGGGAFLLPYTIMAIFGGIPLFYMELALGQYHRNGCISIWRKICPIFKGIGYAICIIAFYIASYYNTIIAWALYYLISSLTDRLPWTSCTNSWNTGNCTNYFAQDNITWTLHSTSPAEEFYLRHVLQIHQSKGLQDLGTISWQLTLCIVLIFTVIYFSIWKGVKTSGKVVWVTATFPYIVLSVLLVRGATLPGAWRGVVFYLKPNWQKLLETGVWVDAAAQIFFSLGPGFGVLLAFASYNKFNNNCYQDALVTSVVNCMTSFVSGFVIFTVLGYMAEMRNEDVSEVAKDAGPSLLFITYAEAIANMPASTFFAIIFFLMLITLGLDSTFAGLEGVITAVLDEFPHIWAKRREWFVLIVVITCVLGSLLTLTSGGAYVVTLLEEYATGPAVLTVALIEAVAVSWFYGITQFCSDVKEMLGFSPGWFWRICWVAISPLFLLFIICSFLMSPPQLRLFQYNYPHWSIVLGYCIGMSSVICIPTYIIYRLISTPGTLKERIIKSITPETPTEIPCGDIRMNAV

NA transporter = target: T2, NA transporter (Rattus norvegicus, UniProt Q63380); test: Inhibition of noradrenaline uptake in rat brain synaptosomes; assay type: biochemical; details: read-out: % Inhibition of NA uptake [10 μM]
T2 construct: from tissue; host or cells: rat brain synaptosomes (P2 fraction) from hypothalamus
T2 sequence (Q63380 1-617): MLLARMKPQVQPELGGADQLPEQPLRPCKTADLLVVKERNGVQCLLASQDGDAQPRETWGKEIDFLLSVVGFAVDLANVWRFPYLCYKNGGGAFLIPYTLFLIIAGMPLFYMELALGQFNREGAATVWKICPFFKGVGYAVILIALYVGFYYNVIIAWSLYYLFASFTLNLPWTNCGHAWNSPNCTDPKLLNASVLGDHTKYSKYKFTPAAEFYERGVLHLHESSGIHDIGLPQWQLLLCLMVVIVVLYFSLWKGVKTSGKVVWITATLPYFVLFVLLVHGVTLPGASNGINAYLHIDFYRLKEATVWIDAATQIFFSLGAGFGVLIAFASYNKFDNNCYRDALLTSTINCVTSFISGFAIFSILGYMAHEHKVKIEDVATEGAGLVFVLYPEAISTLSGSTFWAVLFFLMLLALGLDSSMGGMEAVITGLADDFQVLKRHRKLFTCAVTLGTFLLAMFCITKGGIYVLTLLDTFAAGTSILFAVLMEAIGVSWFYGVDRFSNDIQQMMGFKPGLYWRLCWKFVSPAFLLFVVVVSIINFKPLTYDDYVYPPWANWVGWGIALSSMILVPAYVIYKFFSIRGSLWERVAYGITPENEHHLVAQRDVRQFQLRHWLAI
Description: II. […] For in vitro studies, synaptosomes of rat brain areas are freshly isolated, as described in the article “The isolation of nerve endings from brain” by E. G. Gray and […]. Anatomy 96, pages 79-88, 1962. The relevant literature reference is enclosed herein by reference and is to be regarded as part of the disclosure. […] The homogenate is centrifuged at 4° C. for 10 minutes at 1000 g. […] The respective uptake was measured in a 96 well microtiter plate. The volume was 250 μL and the incubation was carried out at room temperature (ca 20-25° C.) under a blanket of oxygen. […] The 96 samples through were then filtered through a Unifilter GF/B® microtiter plate (Packard) and washed with 200 mL of incubated buffer with the aid of a “Brabdel Cell-Harvester MPXRI 96T”. The Unifilter GF/B plate was dried at 55° C. over a period of 1 h. The plate was then sealed with a back seal® (Packard) and there were then added 35 μL of scintillant fluid per well (Ultima Gold, Packard). Following sealing with a top seal® (Packard) and following adjustment of the equilibrium (approximately over a period of 5 h), the radioactivity is determined in a 1450 Microbeta® (Wallac). […] The amount of protein used in the above determination corresponded to the values known from the literature, such as is described in “Protein measurement with the folin phenol reagent”, Lowry et al., J. Biol. Chem., 193, 265-275, 1951. A detailed description of the method is disclosed in the literature, for example, in […], and B. […] The relevant literature references are incorporated herein by reference and are to be regarded as part of the disclosure.

[1] = test system: phenylquinone-induced writhing reactions in mice; test: Analgesic test using the phenylquinone-induced writhing test on mice; assay type: in vivo, mouse; details: male NMRI mice, phenylquinone i.p.
Description: I. Analgesic Test Using the Writhing Test on Mice
The analysis of analgesic activity is carried out using the phenylquinone-induced writhing assay in mice, modified as described in the article by I. C. Hendershot and J. Forsaith ((1959) in J. Pharmacol. Exp. Ther. 125, 237-240. The relevant description is incorporated herein by reference and is to be regarded as part of the present disclosure.
For the present purpose, male NMRI mice are used having a weight of from 25 to 30 g. Groups of 10 animals per substance dose receive, 10 minutes after an intravenous dose of test substances, an intraperitoneal administration of 0.3 ml/mouse of a 0.02% strength aqueous solution of phenylquinone (phenylbenzoquinone, obtainable from Sigma, Deisenhofen; solution produced with the addition of 5% of ethanol and storage in a water bath at 45° C.). The animals are placed individually in observation cages. Using a pushbutton counter, the number of pain-induced stretching movements (so-called writhing reactions=straightening of the body accompanied by stretching of the rear extremities) was counted over a period of from 5 to 20 minutes following the administration of phenylquinone. The control is provided by animals receiving only physiological saline. All substances are tested using the standard dosage of 10 mg/kg. […]

[2] = 10 μM, rat synaptosomes (hypothalamus), [3H]-NA

Row | Structure (SMILES) | inhibition at 10 µM (5-HT uptake) [%] | inhibition at 10 µM (NA transporter; [2]) [%] | % Inhibition of writhing reactions at 10 mg/kg intravenous [1] [%] | inhibition at 10 µM (NA transporter) [%]
1 | O=C(CC1CCCCC1)Nc1nc2c(s1)CCCC2C(=O)NCC1CCN(Cc2c(F)cccc2Cl)C1 (centres unmarked) [Example 78, 2-(2-Cyclohexylacetylamino)-4,5,6,7-tetrahydrobenzthiazol-4-carboxylic acid [1-(2-chloro-6-fluorobenzyl)pyrrolidin-3-yl]methylamide] | 54 | 41 |  | 
2 | O=C(Cc1ccc(F)cc1)Nc1nc2c(s1)CCCC2C(=O)N1CCN(c2ccccc2Cl)CC1 (centres unmarked) [Example 81, N-{4-[4-(2-Chlorophenyl)piperazin-1-carbonyl]-4,5,6,7-tetrahydrobenzthiazol-2-yl}-2-(4-fluorophenyl)acetamide] | 50 | 80 |  | 
3 | CC(C)(C)CC(=O)Nc1nc2c(s1)CCCC2C(=O)N1CCN(CC=Cc2ccccc2)CC1 (centres unmarked) [Example 87, 3,3-Dimethyl-N-{4-[4-(3-phenylallyl)piperazin-1-carbonyl]-4,5,6,7-tetrahydrobenzthiazol-2-yl}butyramide] | 56 | 46 |  | 
4 | O=C(Nc1nc2c(s1)CCCC2C(=O)N1CCN(c2ccccc2)CC1)c1ccco1 (centres unmarked) [Example 89, Furan-2-carboxylic acid[4-(4-phenylpiperazin-1-carbonyl)-4,5,6,7-tetrahydrobenzthiazol-2-yl]amide] |  |  | 41 | 77

Now from value to compound, other results behind:

Row | inhibition at 10 µM (5-HT uptake) [%] | inhibition at 10 µM (NA transporter; [2]) [%] | Structure (SMILES) | % Inhibition of writhing reactions at 10 mg/kg intravenous [1] [%] | inhibition at 10 µM (NA transporter) [%]
5 | 71 | 75 | CC(C)(C)CC(=O)Nc1nc2c(s1)CCCC2C(=O)NC1CCN(Cc2ccccc2OCc2ccccc2)C1 (centres unmarked) [Example 73, 2-(3,3-Dimethylbutyrylamino)-4,5,6,7-tetrahydrobenzthiazol-4-carboxylic acid [1-(2-benzyloxybenzyl)pyrrolidin-3-yl]amide] |  | 
6 | 59 | 51 | CCOc1ccccc1C(=O)Nc1nc2c(s1)CCCC2C(=O)N1CCN(C(C)c2ccccc2)CC1 (centres unmarked) [Example 75, 2-Ethoxy-N-{4-[4-(1-phenylethyl)piperazin-1-carbonyl]-4,5,6,7-tetrahydrobenzthiazol-2-yl}benzamide] |  | 
7 | 41 | 64 | CC(C)(C)CC(=O)Nc1nc2c(s1)CCCC2C(=O)N1CCN(Cc2ccccc2)CC1 (centres unmarked) [Example 82, N-[4-(4-Benzylpiperazin-1-carbonyl)-4,5,6,7-tetrahydrobenzthiazol-2-yl]-3,3-dimethylbutyramide] |  | 
